Values joined by “and” are separate entries in the source; they are usually repeats but may differ in a detail not shown here. Equal entries are not always repeated. Inconclusive results and toxic doses are left out. No stated cut-off is given here; in the data, active means T/C of 150% or more; inactive means T/C below 125%.
Test system: L1210 leukemia ip in BDF1 mice, survival T/C
Assay: NCI In Vivo Anticancer Drug Screen. Data for tumor model L1210 Leukemia (intraperitoneal) in B6D2F1 (BDF1) mice
Conditions: endpoint: mean survival time, higher = longer survival
Summary of the method: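 Value reflects the ratio of survival in compound-treated mice to survival in vehicle-treated controls, with both groups carrying the same transplanted tumor.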

[1] = dose: 100.0 mg/kg/injection, schedule: Q01DX009 (ip), vehicle: saline
[2] = dose: 200.0 mg/kg/injection, schedule: Q01DX009 (ip), vehicle: saline
[3] = dose: 400.0 mg/kg/injection, schedule: Q01DX009 (ip), vehicle: saline
[4] = dose: 100.0 mg/kg/injection, schedule: Q04DX003 (ip), vehicle: saline
[5] = dose: 200.0 mg/kg/injection, schedule: Q04DX003 (ip), vehicle: saline
[6] = dose: 100.0 mg/kg/injection, schedule: Q01DX009 (ip), vehicle: Klucel (hydroxypropylcellulose) (HPC)
[7] = dose: 100.0 mg/kg/injection, schedule: Q01DX009 (ip), vehicle: saline with Tween-80
[8] = dose: 200.0 mg/kg/injection, schedule: Q01DX009 (ip), vehicle: saline with Tween-80
[9] = dose: 400.0 mg/kg/injection, schedule: Q01DX009 (ip), vehicle: saline with Tween-80
[10] = dose: 25.0 mg/kg/injection, schedule: Q04DX002 (ip), vehicle: Klucel (hydroxypropylcellulose) (HPC)
[11] = dose: 50.0 mg/kg/injection, schedule: Q04DX002 (ip), vehicle: Klucel (hydroxypropylcellulose) (HPC)
[12] = dose: 100.0 mg/kg/injection, schedule: Q04DX002 (ip), vehicle: Klucel (hydroxypropylcellulose) (HPC)
[13] = dose: 400.0 mg/kg/injection, schedule: Q04DX003 (ip), vehicle: Klucel (hydroxypropylcellulose) (HPC)

Measured: T/C

CC12CCC(C(=O)CC1=O)C2(C)C (stereo unspecified)
inactive: [1] 100 % of control | [2] 104 % of control | [3] 96 % of control

C[n+]1cccc2c3ccccc3c(-c3ccccc3)cc21
inactive: dose: 0.78 mg/kg/injection, schedule: Q01DX009 (ip), vehicle: water 86 % of control | dose: 1.56 mg/kg/injection, schedule: Q01DX009 (ip), vehicle: water 102 % of control | dose: 3.12 mg/kg/injection, schedule: Q01DX009 (ip), vehicle: water 87 % of control | dose: 6.25 mg/kg/injection, schedule: Q01DX009 (ip), vehicle: water 112 % of control and 92 % of control | dose: 12.5 mg/kg/injection, schedule: Q04DX003 (ip), vehicle: water 104 % of control | dose: 25.0 mg/kg/injection, schedule: Q04DX003 (ip), vehicle: water 104 % of control

CN(C)CCOC(=O)COc1ccc(Cl)cc1
inactive: dose: 25.0 mg/kg/injection, schedule: Q01DX009 (ip), vehicle: saline 96 % of control | dose: 25.0 mg/kg/injection, schedule: Q04DX003 (ip), vehicle: saline 93 % of control | dose: 50.0 mg/kg/injection, schedule: Q01DX009 (ip), vehicle: saline 100 % of control | dose: 50.0 mg/kg/injection, schedule: Q04DX003 (ip), vehicle: saline 98 % of control | [1] 97 % of control | [4] 90 % of control | [2] 96 % of control | [5] 114 % of control | [3] 96 % of control | dose: 400.0 mg/kg/injection, schedule: Q04DX003 (ip), vehicle: saline 101 % of control

CC(=O)COc1cccc([N+](=O)[O-])c1
inactive: [6] 92 % of control | dose: 200.0 mg/kg/injection, schedule: Q01DX009 (ip), vehicle: Klucel (hydroxypropylcellulose) (HPC) 90 % of control | dose: 400.0 mg/kg/injection, schedule: Q01DX009 (ip), vehicle: Klucel (hydroxypropylcellulose) (HPC) 90 % of control

ClCc1csc(-c2ccccc2)n1
inactive: [7] 115 % of control | [8] 94 % of control | [9] 92 % of control

CC1(C)CCC(C)(C)c2c1ccc(O)c2Sc1c(O)ccc2c1C(C)(C)CCC2(C)C
inactive: dose: 100.0 mg/kg/injection, schedule: Q01DX001 (ip), vehicle: saline 87 % of control

O=c1c2c(O)cccc2oc2cccc(O)c12
inactive: [7] 95 % of control | [8] 91 % of control | [9] 96 % of control

CC1CCCN(C(=O)Nc2ccccc2)C1 (stereo unspecified)
inactive: dose: 100.0 mg/kg/injection, schedule: Q04DX002 (ip), vehicle: saline 104 % of control | dose: 200.0 mg/kg/injection, schedule: Q04DX002 (ip), vehicle: saline 115 % of control | dose: 400.0 mg/kg/injection, schedule: Q04DX002 (ip), vehicle: saline 96 % of control

O=C1OC(OC(=O)c2ccccc2)C(NC2CCCCC2)=C1Br (stereo unspecified)
inactive: [7] 98 % of control | [8] 96 % of control | [9] 98 % of control

Cc1cc(OC(=O)Nc2ccc(Cl)cc2C(F)(F)F)c(C)cc1Cl
inactive: dose: 50.0 mg/kg/injection, schedule: Q01DX009 (ip), vehicle: saline with Tween-80 98 % of control | [7] 95 % of control | [8] 109 % of control

NNc1ncnc2c(C3OC(CO)C(O)C3O)[nH]nc12 (stereo unspecified)
inactive: dose: 12.5 mg/kg/injection, schedule: Q01DX009 (ip), vehicle: Klucel (hydroxypropylcellulose) (HPC) 111 % of control | dose: 20.0 mg/kg/injection, schedule: Q01DX009 (ip), vehicle: water 107 % of control | dose: 25.0 mg/kg/injection, schedule: Q01DX005 (ip), vehicle: Klucel (hydroxypropylcellulose) (HPC) 118 % of control | dose: 30.0 mg/kg/injection, schedule: Q01DX009 (ip), vehicle: water 107 % of control | dose: 45.0 mg/kg/injection, schedule: Q01DX009 (ip), vehicle: water 112 % of control | dose: 50.0 mg/kg/injection, schedule: Q01DX005 (ip), vehicle: Klucel (hydroxypropylcellulose) (HPC) 124 % of control | dose: 50.0 mg/kg/injection, schedule: Q01DX005 (ip), vehicle: saline 118 % of control | dose: 50.0 mg/kg/injection, schedule: Q01DX009 (ip), vehicle: Klucel (hydroxypropylcellulose) (HPC) 113 % of control | dose: 67.0 mg/kg/injection, schedule: Q01DX009 (ip), vehicle: water 122 % of control | [6] 122 % of control | [4] 118 % of control | dose: 100.0 mg/kg/injection, schedule: Q08DX002 (ip), vehicle: saline 102 % of control | dose: 150.0 mg/kg/injection, schedule: Q01DX009 (ip), vehicle: saline 120 % of control | dose: 200.0 mg/kg/injection, schedule: Q01DX005 (ip), vehicle: Klucel (hydroxypropylcellulose) (HPC) 106 % of control | dose: 200.0 mg/kg/injection, schedule: Q01DX005 (ip), vehicle: saline 106 % of control | [5] 122 % of control | dose: 200.0 mg/kg/injection, schedule: Q08DX002 (ip), vehicle: saline 122 % of control | dose: 800.0 mg/kg/injection, schedule: Q08DX002 (ip), vehicle: saline 104 % of control

Fc1ccc(C=Nc2cccc(Cl)c2)cc1
inactive: [7] 95 % of control | dose: 100.0 mg/kg/injection, schedule: Q04DX003 (ip), vehicle: saline with Tween-80 103 % of control | [8] 97 % of control | dose: 200.0 mg/kg/injection, schedule: Q04DX003 (ip), vehicle: saline with Tween-80 93 % of control | [9] 100 % of control | dose: 400.0 mg/kg/injection, schedule: Q04DX003 (ip), vehicle: saline with Tween-80 98 % of control

O=C(/C=C/c1ccncc1)Nc1ccccc1
inactive: [10] 117 % of control | [11] 98 % of control | [12] 98 % of control

O=C(NCCc1ccccc1)Nc1ccccc1Cl
inactive: dose: 100.0 mg/kg/injection, schedule: Q01DX009 (ip), vehicle: gum acacia 96 % of control | dose: 100.0 mg/kg/injection, schedule: Q04DX003 (ip), vehicle: gum acacia 92 % of control | dose: 200.0 mg/kg/injection, schedule: Q01DX009 (ip), vehicle: gum acacia 115 % of control | dose: 200.0 mg/kg/injection, schedule: Q04DX003 (ip), vehicle: gum acacia 92 % of control | dose: 400.0 mg/kg/injection, schedule: Q01DX009 (ip), vehicle: gum acacia 100 % of control | dose: 400.0 mg/kg/injection, schedule: Q04DX003 (ip), vehicle: gum acacia 97 % of control

CC(=O)OCc1ccc(Cl)cc1
inactive: [1] 96 % of control | [2] 102 % of control

CC1Cc2cccc3ccc(=O)n(c23)C1 (stereo unspecified)
inactive: dose: 100.0 mg/kg/injection, schedule: Q01DX001 (ip), vehicle: carboxymethylcellulose (CMC) 91 % of control | dose: 200.0 mg/kg/injection, schedule: Q01DX001 (ip), vehicle: carboxymethylcellulose (CMC) 100 % of control | dose: 400.0 mg/kg/injection, schedule: Q01DX001 (ip), vehicle: carboxymethylcellulose (CMC) 98 % of control

COc1ccc(C(=O)CC(O)(C(F)(F)F)C(F)(F)F)cc1F
inactive: dose: 100.0 mg/kg/injection, schedule: Q04DX003 (ip), vehicle: Klucel (hydroxypropylcellulose) (HPC) 103 % of control | dose: 200.0 mg/kg/injection, schedule: Q04DX003 (ip), vehicle: Klucel (hydroxypropylcellulose) (HPC) 106 % of control | [13] 95 % of control

CCOC(=O)CCC(=O)N(C)CCc1ccc(OC)c(OC)c1
inactive: [10] 117 % of control | [11] 101 % of control | [12] 101 % of control

CCCCCCC(C(=O)OCC)P(=O)(OCC)OCC (stereo unspecified)
inactive: dose: 75.0 mg/kg/injection, schedule: Q01DX001 (ip), vehicle: saline 101 % of control | dose: 150.0 mg/kg/injection, schedule: Q01DX001 (ip), vehicle: saline 94 % of control | dose: 300.0 mg/kg/injection, schedule: Q01DX001 (ip), vehicle: saline 100 % of control

O=C(O)CCSc1nc2ccccc2s1
inactive: dose: 75.0 mg/kg/injection, schedule: Q01DX009 (ip), vehicle: Klucel (hydroxypropylcellulose) (HPC) 101 % of control | dose: 150.0 mg/kg/injection, schedule: Q01DX009 (ip), vehicle: Klucel (hydroxypropylcellulose) (HPC) 88 % of control | dose: 300.0 mg/kg/injection, schedule: Q01DX009 (ip), vehicle: Klucel (hydroxypropylcellulose) (HPC) 95 % of control | [13] 94 % of control

Cc1ccccc1CC1c2[nH]c3ccccc3c2CCN1C (stereo unspecified)
inactive: dose: 75.0 mg/kg/injection, schedule: Q01DX001 (ip), vehicle: other 92 % of control | dose: 150.0 mg/kg/injection, schedule: Q01DX001 (ip), vehicle: other 86 % of control
